The compounds below were run against T1, Wee1 kinase domain (Homo sapiens, UniProt P30291) (assay: Wee1 Kinase Biochemical Assay (ADP-Glo)). Conditions: 1 nM Wee1 enzyme, 15 uM ATP, 4 hours at 25° C.
T1 construct: Wee1 kinase domain was purchased from Carna (catalog #05-177); purchased Carna 05-177
T1 sequence (P30291 299-569 limits assumed): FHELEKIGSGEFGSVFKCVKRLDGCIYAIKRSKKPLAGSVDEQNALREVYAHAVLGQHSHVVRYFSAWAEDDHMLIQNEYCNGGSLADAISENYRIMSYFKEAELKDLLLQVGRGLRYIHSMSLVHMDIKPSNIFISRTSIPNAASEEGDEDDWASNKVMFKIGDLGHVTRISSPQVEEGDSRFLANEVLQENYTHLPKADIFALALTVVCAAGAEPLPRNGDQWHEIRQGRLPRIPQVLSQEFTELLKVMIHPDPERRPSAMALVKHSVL
Experimental: Wee1 Kinase Biochemical Assay Protocol
Wee1 kinase domain was purchased from Carna (catalog #05-177). Wee1 kinase activity was determined with Poly(Lys,Tyr 4:1) hydrobromide as a substrate (Sigma-Aldrich) and by measuring ADP production using the ADP-Glo Kinase Assay kit (Promega) following the manufacturer's instructions. The kinase reaction was performed using the following conditions:
Buffer: 40 mM Tris-HCl, 20 mM magnesium chloride, supplemented with 0.1 mg/mL bovine serum albumin and 2 mM DTT. The final reaction mix contained 1 nM Wee1 enzyme, 15 uM ATP, and 2 ng/mL Poly(Lys,Tyr 4:1) hydrobromide substrate. The reaction time was 4 hours at 25° C.
The ADP-Glo signal was measured using the Envision plate reader and the percentage inhibition of kinase activity calculated for each inhibitor tested. Percent inhibition of Wee1 kinase activity was calculated based on the following formula.
[formula] • SSample: the signal of compounds • SHigh Ctrl: the signal of high control (DMSO) • SLow Ctrl: the signal of low control (positive control Wee1 inhibitor at saturating concentration)
For `CN(C)C1CCN(c2ccc(Nc3ncc4c(n3)N(c3ccccn3)[C@@H]3CC(C)(C)OC[C@]43C)cc2)CC1` (single isomer, unassigned) [Example 819], the IC50 was < 10 nM.

Same assay, conditions: Wee1 kinase domain, 15 uM ATP, ADP-Glo
`CNCc1cccc(N2c3nc(Nc4ccc(N5CCS(=N)(=O)CC5)cc4)ncc3[C@]3(C)COC(C)(C)C[C@H]23)n1` (single isomer, unassigned) [Example 50] showed an IC50 of 10 to 100 nM. Work on `Cc1cc(Nc2ncc3c(n2)N(c2cccc(N=S(C)(C)=O)n2)[C@H]2CC(C)(C)OC[C@@]32C)ccc1[C@@H]1CCNC1` (single isomer, unassigned) [Example 144] yielded an IC50 of 100 to 1000 nM. `CC1(C)C[C@H]2N(c3cccc(N=S(C)(C)=O)n3)c3nc(Nc4ccn5ncnc5c4)ncc3[C@@]2(C)CO1` (single isomer, unassigned) [Example 385] was tested, and the IC50 was < 10 nM. For `CN1CCN(c2ccc(Nc3ncc4c(n3)N(c3cccc(C(C)(C)O)n3)[C@H]3CC(C)(C)OC[C@@]43C)cc2)CC1` (single isomer, unassigned) [Example 3], the IC50 was 100 to 1000 nM. With `CN1CCN(c2ccc(Nc3ncc4c(n3)N(c3cccc(N=S(C)(C)=O)n3)[C@H]3CC(C)(C)OC[C@@]43C)cc2)CC1` [Example 99, dimethyl((6-((4bS,8aS)-4b,7,7-trimethyl-2-((4-(4-methylpiperazin-1-yl)phenyl)amino)-4b,7,8,8a-tetrahydropyrano[3′,4′:4,5]pyrrolo[2,3-d]pyrimidin-9(5H)-yl)pyridin-2-yl)imino)-16-sulfanone] the IC50 was 100 to 1000 nM. In the case of `CNCc1cccc(N2c3nc(Nc4ccc(C(C)(C)C(=O)N(C)C)cc4)ncc3[C@]3(C)COC(C)(C)C[C@H]23)n1` (single isomer, unassigned) [Example 75], the IC50 is reported as ≥ 1000 nM. `Cc1cc(Nc2ncc3c(n2)N(c2cccc(N=S(C)(C)=O)n2)[C@H]2CC(C)(C)OC[C@@]32C)ccc1[C@@H]1CCN(C)C1` (single isomer, unassigned) [Example 146] showed an IC50 of 10 to 100 nM. In the case of `C[C@H]1COC(=O)N1c1cccc(N2c3nc(Nc4ccn(C5CCN(C)CC5)c(=O)c4)ncc3[C@]3(C)COC(C)(C)C[C@H]23)n1` (single isomer, unassigned) [Example 272], the IC50 is reported as 10 to 100 nM. `CN1CCC(c2ccc(Nc3ncc4c(n3)N(c3cccc(N=S(C)(C)=O)n3)[C@@H]3CC(C)(C)OC[C@]43C)cc2)CC1` (single isomer, unassigned) [Example 111] gave an IC50 of 10 to 100 nM. With `CNCc1cccc(N2c3nc(Nc4ccc([C@H]5CC(=O)N(C)C5)cc4)ncc3[C@]3(C)COC(C)(C)C[C@H]23)n1` (single isomer, unassigned) [Example 67] the IC50 was 100 to 1000 nM. `CN1CCC[C@H]1c1ccc(Nc2ncc3c(n2)N(c2cccc(N=S(C)(C)=O)n2)[C@H]2CC(C)(C)OC[C@@]32C)cc1` (single isomer, unassigned) [Example 125] was tested, and the IC50 was 10 to 100 nM. `C[C@H]1COC(=O)N1c1cccc(N2c3nc(Nc4ccc(N5CCNCC5)cc4)ncc3[C@]3(C)COC(C)(C)C[C@H]23)n1` (single isomer, unassigned) [Example 261] showed an IC50 of 10 to 100 nM. With `C[C@H]1COC(=O)N1c1cccc(N2c3nc(Nc4ccc(C(C)(C)C)nc4)ncc3[C@]3(C)COC(C)(C)C[C@H]23)n1` (single isomer, unassigned) [Example 300] the IC50 was 100 to 1000 nM. `C[C@H]1COC(=O)N1c1cccc(N2c3nc(Nc4ccc(N5CC6(CN(C)C6)C5)cc4)ncc3[C@]3(C)COC(C)(C)C[C@H]23)n1` (single isomer, unassigned) [Example 354] showed an IC50 of 10 to 100 nM. With `Cc1cc(Nc2ncc3c(n2)N(c2cccc(N4C(=O)OC[C@@H]4C)n2)[C@H]2CC(C)(C)OC[C@@]32C)ccc1N1CCN(C)CC1` (single isomer, unassigned) [Example 236] the IC50 was 10 to 100 nM. `CNCc1cccc(N2c3nc(Nc4ccc(N5CC6CC5CO6)cc4)ncc3[C@]3(C)COC(C)(C)C[C@H]23)n1` (stereo in doubt) [Example 42, (4bS,8aS)-N-(4-((1R,4R)-2-oxa-5-azabicyclo[2.2.1]heptan-5-yl)phenyl)-4b,7,7-trimethyl-9-(6-((methylamino)methyl)pyridin-2-yl)-4b,5,7,8,8a,9-hexahydropyrano[3′,4′:4,5]pyrrolo[2,3-d]pyrimidin-2-amine] was tested, and the IC50 was 10 to 100 nM.

Same assay, conditions: class symbols; 1 nM Wee1 enzyme, 15 uM ATP, 4 hours at 25° C.
With `CC1(C)C[C@H]2N(c3ccccn3)c3nc(Nc4ccc(N5CCN6CC[C@@H]5C6)cc4)ncc3[C@@]2(C)CO1` [Example 808, (4bR,8aR)-N-(4-((5R)-1,4-diazabicyclo[3.2.1]octan-4-yl)phenyl)-4b,7,7-trimethyl-9-(pyridin-2-yl)-4b,5,7,8,8a,9-hexahydropyrano[3′,4′:4,5]pyrrolo[2,3-d]pyrimidin-2-amine] the IC50 was < 10 nM. `CNCc1cccc(N2c3nc(Nc4ccc(N5[C@@H]6COC[C@H]5C6)cc4)ncc3[C@]3(C)COC(C)(C)C[C@H]23)n1` (single isomer, unassigned) [Example 480] showed an IC50 of 100 to 1000 nM. Work on `CC1(C)C[C@@H]2N(c3cccc(N4CCOC4=O)n3)c3nc(Nc4ccc(C5CNC5)cc4)ncc3[C@]2(C)CO1` [Example 667, 3-(6-((4bS,8aS)-2-((4-(azetidin-3-yl)phenyl)amino)-4b,7,7-trimethyl-4b,7,8,8a-tetrahydropyrano[3′,4′:4,5]pyrrolo[2,3-d]pyrimidin-9(5H)-yl)pyridin-2-yl)oxazolidin-2-one] yielded an IC50 of 10 to 100 nM. `CN1CC[C@H](c2ccc(Nc3ncc4c(n3)N(c3cccc(N5CCOC5=O)n3)[C@H]3CC(C)(C)OC[C@@]43C)cc2)C1` (single isomer, unassigned) [Example 603] showed an IC50 of 10 to 100 nM. For `CC1(C)C[C@@H]2N(c3cccc(N4CCCC4=O)n3)c3nc(Nc4ccc([C@H]5CCNC5)cc4)ncc3[C@]2(C)CO1` [Example 637, 1-(6-((4bS,8aS)-4b,7,7-trimethyl-2-((4-((R)-pyrrolidin-3-yl)phenyl)amino)-4b,7,8,8a-tetrahydropyrano[3′,4′:4,5]pyrrolo[2,3-d]pyrimidin-9(5H)-yl)pyridin-2-yl)pyrrolidin-2-one], the IC50 was 10 to 100 nM. Work on `CN1CCC(c2ccc(Nc3ncc4c(n3)N(c3cccc(N5CCOC5=O)n3)[C@H]3CC(C)(C)OC[C@@]43C)cc2)CC1` (single isomer, unassigned) [Example 590] yielded an IC50 of 10 to 100 nM. With `CN[C@@H](C)c1cccc(N2c3nc(Nc4ccc(N5C[C@@H]6C[C@H]5CO6)cc4)ncc3[C@]3(C)COC(C)(C)C[C@H]23)n1` (single isomer, unassigned) [Example 580] the IC50 was 100 to 1000 nM. In the case of `CNCc1cccc(N2c3nc(Nc4ccc(N5C[C@H]6C[C@@H](C5)O6)cc4)ncc3[C@]3(C)COC(C)(C)C[C@H]23)n1` (single isomer, unassigned) [Example 482], the IC50 is reported as 100 to 1000 nM. `CC[C@@]1(O)CCc2ccc(N3c4nc(Nc5ccc(N6C[C@@H]7C[C@H]6CN7C)cc5)ncc4[C@@]4(C)COC(C)(C)C[C@@H]34)nc21` [Example 792, (R)-7-ethyl-2-((4bR,8aR)-4b,7,7-trimethyl-2-((4-((1S,4S)-5-methyl-2,5-diazabicyclo[2.2.1]heptan-2-yl)phenyl)amino)-4b,7,8,8a-tetrahydropyrano[3′,4′:4,5]pyrrolo[2,3-d]pyrimidin-9(5H)-yl)-6,7-dihydro-5H-cyclopenta[b]pyridin-7-ol] was tested, and the IC50 was < 10 nM. Compound `C[C@H]1CCC(=O)N1c1cccc(N2c3nc(Nc4cnn(C5CCN(C)CC5)c4)ncc3C3(C)COC(C)(C)CC23)n1` (stereo in doubt) [Example 555, (S)-5-methyl-1-(6-((4bS,8aS)-4b,7,7-trimethyl-2-((1-(1-methylpiperidin-4-yl)-1H-pyrazol-4-yl)amino)-4b,7,8,8a-tetrahydropyrano[3′,4′:4,5]pyrrolo[2,3-d]pyrimidin-9(5H)-yl)pyridin-2-yl)pyrrolidin-2-one] has an IC50 of 10 to 100 nM. For `CN[C@]1(C)CCc2ccc(N3c4nc(Nc5ccc(N6CCOCC6)cc5)ncc4[C@]4(C)COC(C)(C)C[C@H]34)nc21` (single isomer, unassigned) [Example 570], the IC50 was 100 to 1000 nM. With `CNC1(c2cccc(N3c4nc(Nc5ccc(N6CCOCC6)cc5)ncc4[C@]4(C)COC(C)(C)C[C@H]34)n2)CC1` (single isomer, unassigned) [Example 544] the IC50 was 100 to 1000 nM. With `C[C@H]1CCC(=O)N1c1cccc(N2c3nc(Nc4ccc(N5C[C@H]6C[C@@H]5CN6C)cc4)ncc3[C@]3(C)COC(C)(C)C[C@H]23)n1` [Example 656, (S)-5-methyl-1-(6-((4bS,8aS)-4b,7,7-trimethyl-2-((4-((1R,4R)-5-methyl-2,5-diazabicyclo[2.2.1]heptan-2-yl)phenyl)amino)-4b,7,8,8a-tetrahydropyrano[3′,4′:4,5]pyrrolo[2,3-d]pyrimidin-9(5H)-yl)pyridin-2-yl)pyrrolidin-2-one] the IC50 was 10 to 100 nM. With `CN1CCC(n2ccc(Nc3ncc4c(n3)N(c3ccccn3)[C@@H]3CC(C)(C)OC[C@]43C)cc2=O)CC1` (single isomer, unassigned) [Example 806] the IC50 was < 10 nM. With `CN1C[C@@H]2C[C@H]1CN2c1ccc(Nc2ncc3c(n2)N(c2ccccn2)[C@@H]2CC(C)(C)OC[C@]32C)cc1` [Example 800, (4bR,8aR)-4b,7,7-trimethyl-N-(4-((1S,4S)-5-methyl-2,5-diazabicyclo[2.2.1]heptan-2-yl)phenyl)-9-(pyridin-2-yl)-4b,5,7,8,8a,9-hexahydropyrano[3′,4′:4,5]pyrrolo[2,3-d]pyrimidin-2-amine] the IC50 was < 10 nM. `CN1C[C@H]2C[C@@H]1CN2c1ccc(Nc2ncc3c(n2)N(c2cccc(C(C)(C)O)n2)[C@H]2CC(C)(C)OC[C@@]32C)cc1` (single isomer, unassigned) [Example 414] was tested, and the IC50 was 100 to 1000 nM.

Reference: patent US20260166039A1 (SCHRÖDINGER, INC., priority 2022, published 2026)
